Results as given in article PMC6993528, “Dehydroepiandrosterone and Its CYP7B1 Metabolite 7α-Hydroxydehydroepiandrosterone Regulates 11β-Hydroxysteroid Dehydrogenase 1 Directions in Rat Leydig Cells” (Frontiers in Endocrinology, 2020).
Entries after “also recorded” stand apart in the source; their conditions may differ.

Tests used:
[1] = biological target: T1, 11β-HSD1 (Rattus norvegicus, UniProt P16232); assay: 11β-HSD1 oxidase assay in intact ALCs (CORT to DHC); type: cell-based; conditions: for lowest observable effective level (LOEL) on 11β-HSD1 oxidase activity: 10 nM-10 μM tested
T1 construct: endogenous in cells; host or cells: primary rat adult Leydig cells (ALCs) from 90-day-old rat testes
T1 sequence (P16232 whole entry): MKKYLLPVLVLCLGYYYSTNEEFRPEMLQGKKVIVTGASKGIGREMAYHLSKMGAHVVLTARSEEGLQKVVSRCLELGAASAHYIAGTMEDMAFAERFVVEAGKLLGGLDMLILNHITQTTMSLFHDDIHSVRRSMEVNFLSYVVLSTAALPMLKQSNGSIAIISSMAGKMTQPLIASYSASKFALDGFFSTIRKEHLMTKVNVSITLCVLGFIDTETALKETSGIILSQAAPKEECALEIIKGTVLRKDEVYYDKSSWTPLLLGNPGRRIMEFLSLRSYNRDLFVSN
Excerpt: (§1) Testes were processed for purification of Leydig cells. The progenitor (PLC), immature (ILC), and adult Leydig cells (ALC) were purified from rat testes at 21, 35, and 90 days postpartum, as described previously ([25], [26]). In brief, forty 21-day-old (for PLCs), eighteen 35-day-old (for ILCs), and six 90-day-old (for ALCs) rats were sacrificed, followed by removal and decapsulation of testes. Then, the testes were digested with collagenase and cells were separated by Percoll density gradient centrifugation. Purities of Leydig cell fractions were evaluated by histochemical staining of 3β-hydroxysteroid dehydrogenase (3β-HSD), with 0.4 mM etiocholanolone as an enzyme substrate ([27]). At least six isolations per cell types were performed.
(§2) 11β-HSD1 oxidase and reductase in intact ALCs were performed as previously described ([15]).11β-HSD1 oxidase activity assay tubes contained 25 nM CORT spiked with 60,000 dpm [^3H]-CORT (a concentration within the range of physiological levels of CORT). 11β-HSD1 reductase activity assay tubes contained 25 nM DHC spiked with 60,000 dpm [^3H]-DHC. 2.5 × 10^4 intact ALCs were added to start the reaction and the reaction was maintained in 34°C and 75 rpm shaking water bath for 30 min. The reactions were stopped by adding 2 ml ice-cold ether. The steroids were extracted, and the organic layer was dried under nitrogen. The steroids were separated chromatographically on thin layer plates in chloroform and methanol (90:10, v/v), and the radioactivity was measured using a scanning radiometer (System AR2000, Bioscan Inc., Washington, DC). The percentage conversion of CORT to DHC and DHC to CORT was calculated by dividing the radioactive counts identified as DHC (or CORT, respectively) by the total counts associated with CORT plus DHC.

[2] = biological target: T1, 11β-HSD1; assay: 11β-HSD1 reductase assay in intact ALCs (DHC to CORT); type: cell-based; conditions: for lowest observable effective level (LOEL) on 11β-HSD1 reductase activity: 10 nM-10 μM tested
Excerpt: as §1, §2

[3] = biological target: T1, 11β-HSD1; assay: 11β-HSD1 oxidase assay in ALC microsomes; type: biochemical
Protocol: (§3) The microsomes from ALCs were prepared as described previously ([6]). In brief, ALCs were homogenized in cold 0.01M PBS, pH 7.2, containing 0.25 M sucrose. Subsequently, the homogenates were centrifuged at 700 × g for 30 min and the supernatants were transferred to other tubes followed by centrifugation at 10,000 × g for 30 min. The resultant supernatants were centrifuged twice at 105,000 × g for 1 h. The pellets were resuspended and the protein contents were determined by Bio-Rad Protein Assay Kit (cat# 500–0006, Bio-Rad, Hercules, CA). Microsomes were used to assay 11β-HSD1 oxidoreductase activities.
(§4) 11β-HSD1 oxidase and reductase in microsomes were performed as previously described ([15]). For measurements in microsomal preparations, microsomes were incubated with 25 nM [^3H]-CORT and 0.2 mM NADP^+ for oxidase or 25 nM [^3H]-DHC and 0.2 mM NADPH for reductase activity in presence of different concentrations of DHEA or 7αOHD. For testing mode of action, microsomes were incubated with 2 nM to 10 μM [^3H]-CORT and 0.2 mM NADP^+ for oxidase or 2 nM to 10 μM [^3H]-DHC and 0.2 mM NADPH for reductase activity. 1.5 μg of ALC microsomes were added to initiate the reaction. The reactions were stopped by adding 2 ml ice-cold ether. The steroids were extracted, and the organic layer was dried under nitrogen. The steroids were separated chromatographically on thin layer plates in chloroform and methanol (90:10, v/v), and the radioactivity was measured using a scanning radiometer (System AR2000, Bioscan Inc., Washington, DC). The percentage conversion of CORT to DHC and DHC to CORT was calculated by dividing the radioactive counts identified as DHC (or CORT, respectively) by the total counts associated with CORT plus DHC.

[4] = biological target: T1, 11β-HSD1; assay: 11β-HSD1 reductase assay in ALC microsomes; type: biochemical; conditions: for LOEL on 11β-HSD1 reductase activity in ALC microsomes: 10 nM-10 μM tested
Protocol: as §3, §4

[5] = ALC microsomes, 0, 1 and 10 μM, Lineweaver-Burk plot

C[C@]12CC[C@H](O)CC1=CC[C@@H]1[C@@H]2CC[C@]2(C)C(=O)CC[C@@H]12 [DHEA, dehydroepiandrosterone]
EC50 [1]: 970 ± 100 nM
lowest observable effective level (LOEL) on 11β-HSD1 oxidase activity ([1]; intact ALCs): 100 nM
11β-HSD1 oxidase activity ([1]; intact ALCs, at 10 μM): 300 % of control
increase of 11β-HSD1 oxidase/reductase ratio ([1]; intact ALCs, at 10 μM): 26 folds
IC50 [2]: 1040 ± 60 nM
lowest observable effective level (LOEL) on 11β-HSD1 reductase activity ([2]; intact ALCs): 100 nM
11β-HSD1 reductase activity ([2]; intact ALCs, at 10 μM): 12 % of control
effect on microsomal 11β-HSD1 oxidase activity ([3]; ALC microsomes, 10 nM-10 μM): did not affect; also recorded: nearly unchanged
effect on microsomal 11β-HSD1 oxidase activity at 10 μM ([3]; ALC microsomes, at 10 μM): inhibited
11β-HSD1 oxidase/reductase ratio in ALC microsomes ([3]; at 1 and 10 μM): significantly higher than control
mode of action on 11β-HSD1 reductase [4, 5]: potent competitive inhibitor
LOEL on 11β-HSD1 reductase activity in ALC microsomes ([4]; ALC microsomes): 100 nM
11β-HSD1 reductase activity in ALC microsomes ([4]; at 10 μM): 25 % of control

C[C@]12CC[C@H](O)CC1=C[C@@H](O)[C@@H]1[C@@H]2CC[C@]2(C)C(=O)CC[C@@H]12 [7αOHD, 7α-hydroxydehydroepiandrosterone]
lowest observable effective level (LOEL) on 11β-HSD1 oxidase activity ([1]; intact ALCs): 100 nM
IC50 ([1]; intact ALCs, 25 nM CORT, 0.5 h, Mean ± SEM (n = 4), read-out: IC50 for inhibition of 11β-HSD1 oxidase, intact Leydig cells): 1180 ± 120 nM
11β-HSD1 oxidase activity ([1]; intact ALCs, at 1 μM): 60 % of control
11β-HSD1 oxidase/reductase ratio ([1]; intact ALCs, at 1 μM): 50 % of control
11β-HSD1 oxidase activity ([1]; intact ALCs, at 10 μM): 25 % of control
11β-HSD1 oxidase/reductase ratio ([1]; intact ALCs, at 10 μM): 20 % of control
lowest observable effective level (LOEL) on 11β-HSD1 reductase activity ([2]; intact ALCs): 100 nM
EC50 ([2]; intact ALCs, 25 nM DHC, 0.5 h, Mean ± SEM (n = 4), read-out: EC50 for stimulation of 11β-HSD1 reductase, intact Leydig cells): 700 ± 40 nM
11β-HSD1 reductase activity ([2]; intact ALCs, at 1 μM): 200 % of control
11β-HSD1 reductase activity ([2]; intact ALCs, at 10 μM): 200 % of control
mode of action on 11β-HSD1 oxidase [3, 5]: competitive inhibitor
LOEL on 11β-HSD1 oxidase activity in ALC microsomes ([3]; ALC microsomes, 10 nM-10 μM tested): 100 nM
EC50/IC50 for 11β-HSD1 oxidase, microsome ([3]; ALC microsomes, 25 nM CORT plus 0.2 mM NADP+, ND, not detected, Mean ± SEM (n = 4)): 0.93 ±0.14 ×10^−6 M
IC50 ([3]; ALC microsomes, 25 nM CORT plus 0.2 mM NADP+, read-out: IC50 for inhibiting 11β-HSD1 oxidase activity in ALC microsomes): 930 nM
11β-HSD1 oxidase activity in ALC microsomes ([3]; at 1 μM): 60 % of control
11β-HSD1 oxidase activity in ALC microsomes ([3]; at 10 μM): 25 % of control
11β-HSD1 oxidase/reductase ratio in ALC microsomes ([3]; at 0.1–10 μM): significantly decreased
LOEL on 11β-HSD1 reductase activity in ALC microsomes ([4]; ALC microsomes): 100 nM
EC50 ([4]; ALC microsomes, 25 nM DHC plus 0.2 mM NADPH, Mean ± SEM (n = 4), read-out: EC50 for stimulation of 11β-HSD1 reductase, microsome): 200 ± 10 nM
effect on 11β-HSD1 reductase activity in ALC microsomes at the highest concentration ([4]; at the highest concentration (100 nM)): did not affect
